# Measured values reported in US20210270855A1, “PIP2 AS A MARKER FOR HDL FUNCTION AND CARDIOVASCULAR DISEASE RISK” (The Cleveland Clinic Foundation, priority 2016, published 2021).
# Assays:
# [1] = tested on: ABCA1 induced RAW264.7 cells; assay: Cholesterol efflux to apoA1 from ABCA1-induced RAW264.7 cells; type: cell-based, mouse; conditions: for ABCA1-dependent cholesterol efflux to apoA1: RAW264.7, 1 μM inhibitor, apoA1 chase
# Procedure: (§1) Cell growth and ABCA1 induction: All cell culture incubations were performed at 37° C. in humidified 5% CO2 incubator. The growth media was Dulbecco's Modified Eagle Medium (DMEM) with 10% fetal calf serum, 100 μg/mL penicillin, 100 μg/mL […]. ABCA1 was induced in […] cells by 16-24 hr incubation with 0.3 mM 8Br-cAMP^34. ABCA1 was induced in BHK cells by 16-24 hr incubation with 10 nM mifepristone^31. Inducers were included in the media during subsequent assays. ABCA1 expression was confirmed by western blot using the AC10 antibody (Santa Cruz Biotech).
# Cholesterol efflux assay: On day 1, cells were plated on 24-well plates at a density of 20,000 to 400,000 cells per well. On day 2, the cells were labeled with […] [^3H]cholesterol in DMEM containing 1% FBS. On day 3, the cells when indicated were treated with or without ABCA1 inducers in serum-free DMEM. On day 4 (or day 3 for HEK293 cells and ABCA1 stably transfected cells) the cells were washed and chased for 4-6 hr in serum-free DMEM in the presence or absence of 5 μg/ml apoA1. The radioactivity in the chase media was determined after brief centrifugation to pellet any residual debris. Radioactivity in the cells was determined by extraction in hexane:isopropanol (3:2) with the solvent evaporated in a scintillation vial prior to counting. The percent cholesterol efflux was calculated as 100×(medium dpm)/(medium dpm+cell dpm).
# Tmem55b knockdown: The siRNA to mouse Tmem55b (Origene, #SR408149) and scrambled control were transfected in RAW264.7 cells using siTran 1.0 (Origene). The cellular protein extracts were prepared using NP-40 lysis buffer containing protease inhibitors. The knockdown efficacy was determined by western blot using anti Tmem55b antibody (Santa Cruz).
# immobilized apoA1 = target: T1, immobilized apoA1 (Homo sapiens, UniProt P02647); assay: Surface plasmon resonance, lipid binding to immobilized apoA1; conditions: biotinylated apoA1 on sensor chip; PC at 1 μM
# T1 construct: ApoA1 was purified form human plasma^29, and dialyzed against PBS; from tissue; host or cells: human plasma
# Procedure: (§2) Surface Plasmon resonance: Binding kinetic of PIP2 with different apolipoproteins was analyzed using a Biacore3000 instrument. Either biotinylated apoA1 or biotinylated PIP2 was immobilized on a streptavidin (SA) sensor chip (GE Healthcare). The immobilized apoA1 or PIP2 was stable over the course of the experiment and baseline drift was <10 response units (RU)/h after the washing with Hepes buffered saline (FIBS) buffer. Different concentrations of apoA1 or PIP2 were injected using the KINJECT procedure at flow-rate of 10 μl/min and dissociation was monitored by injecting FIBS buffer. The injections were performed in triplicate for each ligand concentration. For comparing binding kinetics of PIP2 with apoA1, apoA2 and apoE, these proteins were immobilized by covalent coupling on a CMS sensor chip (GE Healthcare) using EDC-NHS reagents. PIP2 was injected as described above. Corrected response data were fitted with BIAevaluation software version 4.01, and Kd values were calculated.
# apoA1 = apoA1 (Homo sapiens, UniProt P02647); assay: Fluorescence anisotropy, apoA1 binding to bodipy-labeled PIP2; conditions: summary statement in the detailed description; read-out: dissociation constant of apoA1 binding to PIP2
# [2] = tested on: ABCA1 expressing RAW264.7 cells; assay: ApoA1 cell binding by flow cytometry, RAW264.7 cells; type: cell-based, mouse; conditions: ABCA1-induced RAW264.7, apoA1 pre-incubated with PIP2 (5:1 mole ratio)
# Procedure: as §1
# Cell surface PS, PIP2, and apoA1 binding assays via flow cytometry: Cell surface PS levels were determined by flow cytometry after cell scraping in PBS, re-suspension in Annexin V binding buffer, and incubation with AnnexinV-Cy5 (Biovision) at room temperature for 5 minutes in the dark. Cell surface PIP2 levels were determined by flow cytometry by incubation with Alexa647 or FITC labeled anti-PIP2 antibody (Echelon) in phenol red-free, serum-free, DMEM at room temperature for 30 min. Human apoA1 was labeled with Alexa647 (Molecular Probes) on free amines using a 6:1 mole ratio of dye:apoA1. Alexa647-apoA1 binding was determined by flow cytometry after incubation with cells for 45 minutes at room temperature. […] Data was analyzed by Flowjo software and the median relative fluorescent intensities were compared.
# apoE = target: T2, apoE (Homo sapiens, UniProt P02649); assay: Surface plasmon resonance, PIP2 binding to immobilized apoE
# T2 construct: purchased Origene TP723016
# Procedure: as §2
# apoA2 = target: T3, apoA2 (Homo sapiens, UniProt P02652); assay: Surface plasmon resonance, PIP2 binding to immobilized apoA2
# T3 construct: purchased Origene TP721104
# Procedure: as §2
# T1 sequence (P02647 25-267 limits assumed): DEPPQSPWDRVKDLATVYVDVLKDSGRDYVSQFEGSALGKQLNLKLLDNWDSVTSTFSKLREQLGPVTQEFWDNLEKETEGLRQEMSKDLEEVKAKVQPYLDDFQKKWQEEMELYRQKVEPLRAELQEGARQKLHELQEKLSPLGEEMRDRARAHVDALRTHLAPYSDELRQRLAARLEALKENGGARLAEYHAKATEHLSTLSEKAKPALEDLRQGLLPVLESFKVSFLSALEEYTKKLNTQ
# T3 sequence (P02652 19-100): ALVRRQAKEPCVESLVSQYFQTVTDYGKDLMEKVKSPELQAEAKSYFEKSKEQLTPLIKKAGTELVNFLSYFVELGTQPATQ
# apoA1, sequence (P02647 25-267 limits assumed): as the sequence (P02647 25-267 limits assumed) above
# T2 sequence (P02649 19-317): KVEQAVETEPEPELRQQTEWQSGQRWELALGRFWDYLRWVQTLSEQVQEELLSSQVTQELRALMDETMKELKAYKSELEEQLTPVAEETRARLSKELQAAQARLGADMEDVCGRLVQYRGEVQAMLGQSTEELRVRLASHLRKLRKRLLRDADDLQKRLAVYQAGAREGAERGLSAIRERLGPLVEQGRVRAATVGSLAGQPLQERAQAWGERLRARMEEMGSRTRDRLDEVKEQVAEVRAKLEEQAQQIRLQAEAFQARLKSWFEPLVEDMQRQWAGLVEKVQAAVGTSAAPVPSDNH
molecule,measurement,setting,value
CC(=O)Nc1nc(C)c(-c2ccc(Cl)c(S(=O)(=O)NCCO)c2)s1 [PIK-93],ABCA1-dependent cholesterol efflux to apoA1,[1],decreased
"CCCCC/C=C\C/C=C\C/C=C\C/C=C\CCCC(=O)O[C@H](COC(=O)CCCCCCCCCCCCCCCCC)COP(=O)(O)O[C@@H]1[C@H](O)[C@H](O)[C@@H](OP(=O)(O)O)[C@H](OP(=O)(O)O)[C@H]1O [PIP2, phosphatidylinositol (4,5) bis-phosphate]",binding to immobilized apoA1 (SPR),immobilized apoA1,direct binding
same,Kd,apoA1,~100 nM
same,cholesterol efflux to apoA1,"[1]; ABCA1-induced RAW264.7, apoA1 5 μg/ml pre-incubated with PIP2 (PIP2:apoA1 5:1 mole ratio)",decreased
same,apoA1 binding,[2],decreased
same,direct binding to apoE (SPR),apoE,direct binding
same,direct binding to apoA2 (SPR),apoA2,direct binding
phosphatidylcholine [PC],binding to immobilized apoA1 (SPR),immobilized apoA1,no binding
CC(C)(C)C(=O)Nc1ccc2c(c1)C(=O)C(=O)c1ccccc1-2 [SF1670],ABCA1-dependent cholesterol efflux to apoA1,[1],decreased
